Source: article PMC8453901, “GLPG1205, a GPR84 Modulator: Safety, Pharmacokinetics, and Pharmacodynamics in Healthy Subjects” (Clinical Pharmacology in Drug Development, 2021)
“Also recorded” adds a separate entry of the source.

How the values were obtained:
[1] = parameters: method as in data on file at Galapagos, 17; details: separate study; ref data on file at Galapagos, 17; cited from earlier work
CYP2B6 = tested on: CYP2B6; parameters: method as in data on file at Galapagos; details: in vitro; ref data on file at Galapagos; cited from earlier work
[2] = Study 2 part 1: effect of aging on pharmacokinetics, 50 mg once daily for 14 days; format: in vivo, human; details: for Tmax / Cmax / AUC(0-t) / concentration at 24 h / AUC(0-inf) / half-life: male, human, plasma, oral, 50 mg; for AUC(0-t): read-out: AUC0–24h; for concentration at 24 h: read-out: C24h; for half-life: read-out: t1/2,λz (converted)
Protocol: (§1) During study 2, GLPG1205 50 mg or matching placebo was administered as capsules in the morning 30 minutes after the start of a standard breakfast. Subjects were kept in‐house from the evening of day –1 to ≈26 hours after the first dose (day 2), and from the evening of day 13 until day 15. Administration of the study drug was performed daily at the clinical pharmacology unit. Subjects returned for a follow‐up visit at day 35.
(§2) In part 1, 24 healthy male subjects were matched into 3 cohorts based on body weight: Cohort A comprised 8 subjects aged 65–74 years, inclusive; cohort B comprised 8 subjects aged ≥75 years (1:1 weight matched with cohort A subjects [± 5 kg]); and cohort C comprised 8 subjects aged 18 to 50 years, inclusive (1:1 weight matched with cohort A subjects [± 5 kg]). All cohorts received GLPG1205 50 mg once daily or matching placebo, in a 3:1 ratio, for 14 days. In the open‐label second part of study 2, 8 subjects (cohort D) aged 65 to 74 years, inclusive, were included to characterize the PK profile after a loading dose of GLPG1205 250 mg on day 1 followed by multiple doses of GLPG1205 50 mg once daily from day 2 to day 14.
(§3) In the SAD part of study 1, blood samples (2 mL) for PK assessments were obtained before dosing and at multiple time points on the day of study drug administration (before dosing and 0.5, 1, 2, 4, 6, 8, and 12 hours after dosing) and at 24, 48, and 72 hours after dosing. The predose sample for the next dose level was also used in PK analysis (168 hours after dosing). […] In the MAD part of study 1, blood samples (2 mL) were obtained on days 1, 2, 4, 5, 6, 8, 10, 12, 14, 15, 16, 17, and 18 and at follow‐up (approximately 7 to 10 days after the last dose). These PK blood samples were taken after dosing (1, 2, 4, 6, 8, 12, and 24 hours) on day 1; before dosing on days 4, 6, 8, and 10; and after dosing (1, 2, 4, 6, 8, 12, 24, 72, and 96 hours) on day 14. The following additional PK blood samples were also taken: cohort C, before dosing on day 5; and cohorts D and E, before dosing on day 12. Urine samples were obtained from fractions collected over 6‐ or 12‐hour periods after dosing on days –1, 1, 2, 13, 14, and 15; samples obtained on days –1 and 13 were for cytochrome P450 (CYP) induction analysis only. In study 2, blood samples (2 mL) were obtained on days 1, 2, 5, 7, 10, 14, 15, 17, and 20 and at follow‐up (approximately 21 days after end of study medication administration). Blood samples were taken before dosing and at 1, 2, 4, 6, 8, 12, and 24 hours after drug administration on days 1 and 14 and before dosing on other sampling days.
(§4) GLPG1205 plasma concentrations were determined using a validated liquid chromatography with tandem mass spectrometry method. After a protein precipitation with methanol, a chromatographic separation was performed on a Kinetex C18 column (50×3.0 mm, 2.6 μm; Phenomenex, Torrance, California) set at 40°C by using a Nexera high‐performance liquid chromatography (HPLC) system (Shimadzu, Kyoto, Japan) or an Infinity HPLC system (Agilent Technologies, Diegem, Belgium) in isocratic elution mode. A QTRAP6500, QTRAP4000, or API4000 mass spectrometer (AB Sciex, Nieuwerkerk aan den Ijssel, The Netherlands) equipped with a TurboIonSpray probe operated in the multiple reaction monitoring in positive mode was used for quantification. The calibration curves in plasma were linear over the range of 1 to 1000 ng/mL with 1/x^2 as weighting factor. The limit of quantification of the assay in the plasma samples was set at 1 ng/mL.
(§5) PK calculations were performed using Phoenix WinNonlin 6.2 (Pharsight Corporation, Palo Alto, California). […] AUC0‐inf was calculated from the area under the plasma concentration‐time curve from time 0 until the time corresponding with the last observed quantifiable concentration + Ct/λz, where Ct was the last observed quantifiable concentration and λz the first‐order terminal rate constant. […]

CYP2C19 = tested on: CYP2C19; parameters: method as in data on file at Galapagos, 8, 9; details: 100 mg once daily, healthy male subjects; ref data on file at Galapagos, 8, 9; cited from earlier work
[3] = Study 2 part 2: pharmacokinetics with 250-mg loading dose then 50 mg once daily; format: in vivo, human
Protocol: as §1, §2, §3, §4, §5

[4] = 50 mg once daily, cohort A 65-74 y, day 14, mean (CV%), N = 4
[5] = 50 mg once daily, cohort A 65-74 y, day 1, mean (CV%)
[6] = 50 mg once daily, cohort A 65-74 y, day 14, mean (CV%)
[7] = 50 mg once daily, cohort B ≥75 y, day 1, mean (CV%)
[8] = 50 mg once daily, cohort B ≥75 y, day 14, mean (CV%)
[9] = 50 mg once daily, cohort C 18-50 y, day 1, mean (CV%)
[10] = 50 mg once daily, cohort C 18-50 y, day 14, mean (CV%)

In the case of `O=c1nc(OC[C@@H]2COCCO2)cc2n1CCc1cc(C#CC3CC3)ccc1-2` [GLPG1205, 9‐cyclopropylethynyl‐2‐((S)‐1‐[1,4]dioxan‐2‐ylmethoxy)‐6,7‐dihydropyrimido[6,1‐a]isoquinolin‐4‐one], the “food effect on GLPG1205 exposure” value [1] is listed as “no food effect”, the “inhibition of CYP2B6” value (CYP2B6) is listed as “weak inhibition” and the “effect of age on GLPG1205 exposure” value ([2]; 50 mg once daily for 14 days, 3 age groups) is listed as “Age did not affect GLPG1205 exposure; also recorded: age has no effect on GLPG1205 exposure; also recorded: Age had no effect on the PK”. For the same compound, the “Rac (accumulation ratio)” value ([2]; 50 mg once daily, cohort A 65-74 y, AUC0-24h day 14/day 1 (Table 5A)) was 6.16 (0.74), the “AUC0–inf” value [2, 4] was 338 (26.0) ^N = 4 μg • h/mL and the “Rac (accumulation ratio)” value ([2]; 50 mg once daily, cohort B ≥75 y, AUC0-24h day 14/day 1) was 5.77 (1.34). For the same compound, the “Rac (accumulation ratio)” value ([2]; 50 mg once daily, cohort C 18-50 y, AUC0-24h day 14/day 1) was 5.02 (1.66), the Tmax ([2]; 50 mg once daily for 14 days, all 3 age groups) was 2 to 3 h and the Cmax [2, 5] was 557 ng/mL. The AUC(0-t) [2, 5] was 8920 ng·h/mL, the concentration at 24 h [2, 5] was 334 ng/mL and the Cmax [2, 6] was 2750 ng/mL. The AUC(0-inf) [2, 4] was 338000 ng·h/mL, the AUC(0-t) [2, 6] was 54200 ng·h/mL and the concentration at 24 h [2, 6] was 2440 ng/mL. It also gave a half-life [2, 6] of 71.9 h, a Cmax [2, 7] of 440 ng/mL and an AUC(0-t) [2, 7] of 6900 ng·h/mL. For the same compound, the concentration at 24 h [2, 7] was 290 ng/mL, the Cmax [2, 8] was 1960 ng/mL and the AUC(0-inf) ([2]; 50 mg once daily, cohort B ≥75 y, day 14, mean (CV%), N = 4) was 236000 ng·h/mL. It also gave an AUC(0-t) [2, 8] of 39300 ng·h/mL, a concentration at 24 h [2, 8] of 1820 ng/mL and a half-life [2, 8] of 64.5 h. The Tmax ([2]; 50 mg once daily, cohort B ≥75 y, day 14, median (minimum-maximum)) was 3 h, the Cmax [2, 9] was 476 ng/mL and the AUC(0-t) [2, 9] was 7740 ng·h/mL. For the same compound, the concentration at 24 h [2, 9] was 301 ng/mL, the Cmax [2, 10] was 1950 ng/mL and the AUC(0-inf) ([2]; 50 mg once daily, cohort C 18-50 y, day 14, mean (CV%), N = 5) was 194000 ng·h/mL. For the same compound, the AUC(0-t) [2, 10] was 37700 ng·h/mL, the concentration at 24 h [2, 10] was 1590 ng/mL and the half-life [2, 10] was 56 h. For the same compound, the “effect on exposure of CYP2C19” value (CYP2C19) was “did not affect the exposure”, the “steady-state exposure with loading dose vs cohort A without” value ([3]; 250-mg loading dose + 13 days 50 mg once daily vs 14 days 50 mg once daily) was “no difference in steady‐state exposure” and the “quantifiability in plasma after last dose” value ([3]; 144 hours after the last dose on day 14, all subjects) was “quantifiable in plasma up to day 20”. The “time of maximal mean GLPG1205 concentration” value ([3]; after 250-mg loading dose on day 1) was 12 hours after dosing, the “day by which steady state in plasma concentration was reached” value ([3]; after the loading dose of 250 mg) was at most 2 days and the Rac ([3]; cohort D 65-74 y, 250-mg loading dose then 50 mg once daily, day 14, mean (CV%)) was 1.35 (22.8). For the same compound, the “Rac point estimate (CI), cohort D vs cohort A” value ([3]; day 14, ratio of cohort D relative to cohort A expressed as a percentage) was “<.0001 22.11 (18.46‐26.48)”, the “subjects with GLPG1205 below the limit of quantification” value ([3]; follow-up visit day 35, 504 hours after the last dose) was 5 of 8 and the Cmax ([3]; human, plasma, oral, cohort D 65-74 y, 250-mg loading dose then 50 mg once daily, day 14, mean (CV%)) was 2630 ng/mL. For the same compound, the AUC(0-inf) ([3]; human, plasma, oral, cohort D 65-74 y, 250-mg loading dose then 50 mg once daily, day 14, mean (CV%), N = 6) was 250000 ng·h/mL, the half-life ([3]; human, plasma, oral, cohort D 65-74 y, 250-mg loading dose then 50 mg once daily, day 14, mean (CV%), N = 7, read-out: t1/2,λz (converted)) was 55.4 h and the AUC(0-t) ([3]; human, plasma, oral, cohort D 65-74 y, 250-mg loading dose then 50 mg once daily, day 14, mean (CV%), read-out: AUC0–24h) was 53700 ng·h/mL. The concentration at 24 h ([3]; human, plasma, oral, cohort D 65-74 y, 250-mg loading dose then 50 mg once daily, day 14, mean (CV%), read-out: C24h) was 2360 ng/mL, the concentration at 504 h ([3]; human, plasma, oral, day 35, 504 hours after the last dose, subjects in whom still quantifiable, read-out: plasma GLPG1205 level at follow-up) was 2.01 to 21.6 ng/mL and the “time to reach steady-state exposure” value ([3]; single 250-mg loading dose) was 1 days.
